According to US8889874B2, “Imidazolone-chalcone derivatives as potential anticancer agent and process for the preparation thereof” (Council of Scientific and Industrial Research, priority 2010, dated 2014):
Where two headings read alike, the source gives them in different places.

Key:
Assay in all cases: NCI anticancer screen, SRB assay, 48 h
Format in all cases: cell-based, human
MDA-MB-231/ATCC (breast) = conditions: Homo sapiens
Procedure: (§1) Some of biological activity studies were carried out at the National Cancer Institute (NCI), Maryland, USA.
(§2) The compounds were evaluated for anticancer activity against fifty three human cancer cells derived from nine cancer types (leukemia cell line, non-small-cell lung cell line, colon cell line, CNS cell line, melanoma cell line, ovarian cell line, prostate cell line, and breast cancer cell line) as shown in Table 1. For each compound, dose response curves for each cell line were measured at a minimum of five concentrations at 10 fold dilutions. A protocol of 48 h continuous drug exposure was used and a sulforhodamine B (SRB) protein assay was used to estimate cell viability or growth.

[1] = tested on: NCI-H226 (non-small cell lung); conditions: Homo sapiens
Procedure: as §1, §2

TD-47D (breast) = conditions: Homo sapiens
Procedure: as §1, §2

SF-268 (CNS) = conditions: Homo sapiens
Procedure: as §1, §2

OVCAR-8 (ovarian) = conditions: Homo sapiens
Procedure: as §1, §2

LOX IMVI (melanoma) = conditions: Homo sapiens
Procedure: as §1, §2

[2] = tested on: NCI-H522 (non-small cell lung); conditions: Homo sapiens
Procedure: as §1, §2

CAKI-1 (renal) = conditions: Homo sapiens
Procedure: as §1, §2

HT29 (colon) = conditions: Homo sapiens
Procedure: as §1, §2

HS 578T (breast) = conditions: Homo sapiens
Procedure: as §1, §2

[3] = tested on: K-562 (leukemia cell line); conditions: Homo sapiens
Procedure: as §1, §2

UACC-62 (melanoma) = conditions: Homo sapiens
Procedure: as §1, §2

HCC-2998 (colon) = conditions: Homo sapiens
Procedure: as §1, §2

SNB-19 (CNS) = conditions: Homo sapiens
Procedure: as §1, §2

ACHN (renal) = conditions: Homo sapiens
Procedure: as §1, §2

SNB-75 (CNS) = conditions: Homo sapiens
Procedure: as §1, §2

SK-MEL-2 (melanoma) = conditions: Homo sapiens
Procedure: as §1, §2

SK-OV-3 (ovarian) = conditions: Homo sapiens
Procedure: as §1, §2

NCI/ADR-RES (ovarian) = conditions: Homo sapiens, NCI/ADR-RES
Procedure: as §1, §2

[4] = tested on: NCI-H460 (non-small cell lung); conditions: Homo sapiens
Procedure: as §1, §2

OVCAR-5 (ovarian) = conditions: Homo sapiens
Procedure: as §1, §2

[5] = tested on: HOP-92 (non-small cell lung); conditions: Homo sapiens
Procedure: as §1, §2

TK-10 (renal) = conditions: Homo sapiens
Procedure: as §1, §2

KM12 (colon) = conditions: Homo sapiens
Procedure: as §1, §2

BT-549 (breast) = conditions: Homo sapiens
Procedure: as §1, §2

COLO 205 (colon) = conditions: Homo sapiens, COLO 205
Procedure: as §1, §2

[6] = tested on: NCI-H23 (non-small cell lung); conditions: Homo sapiens
Procedure: as §1, §2

SN12C (renal) = conditions: Homo sapiens, SN12C
Procedure: as §1, §2

HCT-15 (colon) = conditions: Homo sapiens
Procedure: as §1, §2

[7] = tested on: HOP-62 (non-small cell lung); conditions: Homo sapiens
Procedure: as §1, §2

OVCAR-3 (ovarian) = conditions: Homo sapiens
Procedure: as §1, §2

UACC-257 (melanoma) = conditions: Homo sapiens
Procedure: as §1, §2

SF-539 (CNS) = conditions: Homo sapiens
Procedure: as §1, §2

M14 (melanoma) = conditions: Homo sapiens
Procedure: as §1, §2

MALME-3M (melanoma) = conditions: Homo sapiens
Procedure: as §1, §2

[8] = tested on: EKVX (non-small cell lung); conditions: Homo sapiens
Procedure: as §1, §2

[9] = 48 h exposure, SRB, read-out: GI50
[10] = read-out: pGI50 (-log of molar concentration causing 50% inhibition of net cell growth) (converted)

O=C(/C=C/c1cccc(O)c1)c1cccc(-n2cc(-c3ccc4ccccc4c3)[nH]c2=O)c1 [12b, 1-3-[(E)-3-(3-hydroxyphenyl)-2-propenoyl]phenyl-4-(2-naphthyl)-2,3-dihydro-1H-2-imidazolone] was tested, and the GI50 (MDA-MB-231/ATCC (breast); [9]) was 1660 nM, the GI50 (MDA-MB-231/ATCC (breast); [10]) was 1660 nM and the GI50 [1, 9] was 2430 nM. The GI50 [1, 10] was 2450 nM, the GI50 (TD-47D (breast); [9]) was 1110 nM and the GI50 (TD-47D (breast); [10]) was 1120 nM. The GI50 (SF-268 (CNS); [9]) was 1730 nM, the GI50 (SF-268 (CNS); [10]) was 1740 nM and the GI50 (OVCAR-8 (ovarian); [9]) was 2330 nM. The GI50 (OVCAR-8 (ovarian); [10]) was 2340 nM, the GI50 (LOX IMVI (melanoma); [9]) was 850 nM and the GI50 (LOX IMVI (melanoma); [10]) was 851 nM. It also gave a GI50 [2, 9] of 1290 nM, a GI50 [2, 10] of 1290 nM and a GI50 (CAKI-1 (renal); [9]) of 1450 nM. The GI50 (CAKI-1 (renal); [10]) was 1450 nM, the GI50 (HT29 (colon); HT-29, 48 h exposure, SRB, read-out: GI50) was 1540 nM and the GI50 (HT29 (colon); HT-29, read-out: pGI50 (-log of molar concentration causing 50% inhibition of net cell growth) (converted)) was 1550 nM. For the same compound, the GI50 (HS 578T (breast); [9]) was 2010 nM, the GI50 (HS 578T (breast); [10]) was 2000 nM and the GI50 ([3]; K562, 48 h exposure, SRB, read-out: GI50) was 1430 nM. It also gave a GI50 ([3]; K562, read-out: pGI50 (-log of molar concentration causing 50% inhibition of net cell growth) (converted)) of 1450 nM, a GI50 (UACC-62 (melanoma); [9]) of 1800 nM and a GI50 (UACC-62 (melanoma); [10]) of 1820 nM. The GI50 (HCC-2998 (colon); [9]) was 2130 nM, the GI50 (HCC-2998 (colon); [10]) was 2140 nM and the GI50 (SNB-19 (CNS); [9]) was 1320 nM. For the same compound, the GI50 (SNB-19 (CNS); [10]) was 1320 nM, the GI50 (ACHN (renal); [9]) was 1570 nM and the GI50 (ACHN (renal); [10]) was 1580 nM. It also gave a GI50 (SNB-75 (CNS); [9]) of 1880 nM, a GI50 (SNB-75 (CNS); [10]) of 1860 nM and a GI50 (SK-MEL-2 (melanoma); [9]) of 2310 nM. It also gave a GI50 (SK-MEL-2 (melanoma); [10]) of 2290 nM, a GI50 (SK-OV-3 (ovarian); [9]) of 2150 nM and a GI50 (SK-OV-3 (ovarian); [10]) of 2140 nM. The GI50 (NCI/ADR-RES (ovarian); NCl/ADR-RES, 48 h exposure, SRB, read-out: GI50) was 1550 nM, the GI50 (NCI/ADR-RES (ovarian); [10]) was 1550 nM and the GI50 [4, 9] was 1670 nM. The GI50 [4, 10] was 1660 nM, the GI50 (OVCAR-5 (ovarian); [9]) was 1890 nM and the GI50 (OVCAR-5 (ovarian); [10]) was 1910 nM. It also gave a GI50 [5, 9] of 510 nM, a GI50 [5, 10] of 513 nM and a GI50 (TK-10 (renal); [9]) of 3450 nM. The GI50 (TK-10 (renal); [10]) was 3470 nM, the GI50 (KM12 (colon); [9]) was 1210 nM and the GI50 (KM12 (colon); [10]) was 1200 nM. The GI50 (BT-549 (breast); [9]) was 1890 nM, the GI50 (BT-549 (breast); [10]) was 1910 nM and the GI50 (COLO 205 (colon); COLO205, read-out: pGI50 (-log of molar concentration causing 50% inhibition of net cell growth) (converted)) was 2090 nM. For the same compound, the GI50 (COLO 205 (colon); [9]) was 2090 nM, the GI50 [6, 9] was 1520 nM and the GI50 [6, 10] was 1510 nM. For the same compound, the GI50 (SN12C (renal); SN 12C, read-out: pGI50 (-log of molar concentration causing 50% inhibition of net cell growth) (converted)) was 1450 nM, the GI50 (SN12C (renal); [9]) was 1440 nM and the GI50 (HCT-15 (colon); [9]) was 1560 nM. The GI50 (HCT-15 (colon); [10]) was 1550 nM, the GI50 [7, 9] was 2260 nM and the GI50 [7, 10] was 2240 nM. It also gave a GI50 (OVCAR-3 (ovarian); [9]) of 1330 nM, a GI50 (OVCAR-3 (ovarian); [10]) of 1320 nM and a GI50 (UACC-257 (melanoma); [9]) of 4130 nM. The GI50 (UACC-257 (melanoma); [10]) was 4170 nM, the GI50 (SF-539 (CNS); [9]) was 1550 nM and the GI50 (SF-539 (CNS); [10]) was 1550 nM. The GI50 (M14 (melanoma); [9]) was 1490 nM, the GI50 (M14 (melanoma); [10]) was 1480 nM and the GI50 (MALME-3M (melanoma); Malme-3M, read-out: pGI50 (-log of molar concentration causing 50% inhibition of net cell growth) (converted)) was 2090 nM. The GI50 (MALME-3M (melanoma); MALME-3M, 48 h exposure, SRB, read-out: GI50) was 2080 nM, the GI50 [8, 9] was 2640 nM and the GI50 [8, 10] was 2630 nM.
